Test results taken from PubChem BioAssay AID1963830 (Molecular Pharmacology Branch, DTP, NCI, 2024).

Test system: 922993-354-T-J3-PDC complex spheroid viability
Assay: Anticancer human tumor 922993-354-T-J3-PDC patient-derived endometrial carcinoma cell line growth inhibition [POLQ]
Conditions: for IC50: curve of first compound; for viability, T/C: stronger effect = lower value
Outline: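 Growth inhibition in 3D: complex spheroids (tumor PDC, HUVEC, MSC) treated with POLQ inhibitor combinations; where Cmax unknown, highest tested concentration 10 microM, except SN-38 at 1 microM.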

[1] = second compound 0.0316 µM, first compound 0.00316 µM
[2] = second compound 0.0316 µM, first compound 0.01 µM
[3] = second compound 0.0316 µM, first compound 0.0316 µM
[4] = second compound 0.0316 µM, first compound 0.1 µM
[5] = second compound 0.0316 µM, first compound 0.316 µM
[6] = second compound 0.0316 µM, first compound 1 µM
[7] = second compound 0.1 µM, first compound 0.00316 µM
[8] = second compound 0.1 µM, first compound 0.01 µM
[9] = second compound 0.1 µM, first compound 0.0316 µM
[10] = second compound 0.1 µM, first compound 0.1 µM
[11] = second compound 0.1 µM, first compound 0.316 µM
[12] = second compound 0.1 µM, first compound 1 µM
[13] = second compound 0.316 µM, first compound 0.00316 µM
[14] = second compound 0.316 µM, first compound 0.01 µM
[15] = second compound 0.316 µM, first compound 0.0316 µM
[16] = second compound 0.316 µM, first compound 0.1 µM
[17] = second compound 0.316 µM, first compound 0.316 µM
[18] = second compound 0.316 µM, first compound 1 µM
[19] = second compound 1 µM, first compound 0.00316 µM
[20] = second compound 1 µM, first compound 0.01 µM
[21] = second compound 1 µM, first compound 0.0316 µM
[22] = second compound 1 µM, first compound 0.1 µM
[23] = second compound 1 µM, first compound 0.316 µM
[24] = second compound 1 µM, first compound 1 µM
[25] = second compound 3.16 µM, first compound 0.00316 µM
[26] = second compound 3.16 µM, first compound 0.01 µM
[27] = second compound 3.16 µM, first compound 0.0316 µM
[28] = second compound 3.16 µM, first compound 0.1 µM
[29] = second compound 3.16 µM, first compound 0.316 µM
[30] = second compound 3.16 µM, first compound 1 µM
[31] = second compound 10 µM, first compound 0.00316 µM
[32] = second compound 10 µM, first compound 0.01 µM
[33] = second compound 10 µM, first compound 0.0316 µM
[34] = second compound 10 µM, first compound 0.1 µM
[35] = second compound 10 µM, first compound 0.316 µM
[36] = second compound 10 µM, first compound 1 µM
[37] = second compound 0.0316 µM, first compound 3.16 µM
[38] = second compound 0.0316 µM, first compound 10 µM
[39] = second compound 0.1 µM, first compound 3.16 µM
[40] = second compound 0.1 µM, first compound 10 µM
[41] = second compound 0.316 µM, first compound 3.16 µM
[42] = second compound 0.316 µM, first compound 10 µM
[43] = second compound 1 µM, first compound 3.16 µM
[44] = second compound 1 µM, first compound 10 µM
[45] = second compound 3.16 µM, first compound 3.16 µM
[46] = second compound 3.16 µM, first compound 10 µM
[47] = second compound 10 µM, first compound 3.16 µM
[48] = second compound 10 µM, first compound 10 µM
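Also: spheroids exposed to the agents for one week.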
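For viability, T/C in this document: 100% = DMSO vehicle control wells.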

`C=CCn1c(=O)c2cnc(Nc3ccc(N4CCN(C)CC4)cc3)nc2n1-c1cccc(C(C)(C)O)n1` + Nc1ccc(C#CCN(C(=O)Cc2ncc(C(F)(F)F)cc2C(F)(F)F)c2ccc(F)cc2)nn1 gave an IC50 (second compound 0.0316 µM) of over 1 µM, an IC50 (second compound 0.1 µM) of over 1 µM and an IC50 (second compound 0.316 µM) of over 1 µM. The IC50 (second compound 1 µM) was over 1 µM, the IC50 (second compound 3.16 µM) was over 1 µM and the IC50 (second compound 10 µM) was over 1 µM. It also gave a viability, T/C [1] of 105%, a viability, T/C [2] of 102% and a viability, T/C [3] of 101%. For the same compound, the viability, T/C [4] was 100%, the viability, T/C [5] was 106% and the viability, T/C [6] was 98.5%. For the same compound, the viability, T/C [7] was 107%, the viability, T/C [8] was 98.5% and the viability, T/C [9] was 103%. The viability, T/C [10] was 99.6%, the viability, T/C [11] was 104% and the viability, T/C [12] was 101%. For the same compound, the viability, T/C [13] was 107%, the viability, T/C [14] was 101% and the viability, T/C [15] was 97.5%. It also gave a viability, T/C [16] of 101%, a viability, T/C [17] of 99.6% and a viability, T/C [18] of 100%. The viability, T/C [19] was 103%, the viability, T/C [20] was 99% and the viability, T/C [21] was 101%. It also gave a viability, T/C [22] of 97.6%, a viability, T/C [23] of 100% and a viability, T/C [24] of 100%. For the same compound, the viability, T/C [25] was 100%, the viability, T/C [26] was 98.8% and the viability, T/C [27] was 101%. It also gave a viability, T/C [28] of 99.4%, a viability, T/C [29] of 101% and a viability, T/C [30] of 94.8%. It also gave a viability, T/C [31] of 96.3%, a viability, T/C [32] of 92.5% and a viability, T/C [33] of 94.5%. For the same compound, the viability, T/C [34] was 95.8%, the viability, T/C [35] was 97% and the viability, T/C [36] was 55.2%.
Compound `CCCS(=O)(=O)Nc1ccc(F)c(C(=O)c2c[nH]c3ncc(-c4ccc(Cl)cc4)cc23)c1F` + Nc1ccc(C#CCN(C(=O)Cc2ncc(C(F)(F)F)cc2C(F)(F)F)c2ccc(F)cc2)nn1 has an IC50 (second compound 0.0316 µM) of over 10 µM, an IC50 (second compound 0.1 µM) of over 10 µM and an IC50 (second compound 0.316 µM) of over 10 µM. The IC50 (second compound 1 µM) was over 10 µM, the IC50 (second compound 3.16 µM) was over 10 µM and the IC50 (second compound 10 µM) was over 10 µM. The viability, T/C [3] was 99.3%, the viability, T/C [4] was 107% and the viability, T/C [5] was 105%. It also gave a viability, T/C [6] of 107%, a viability, T/C [37] of 104% and a viability, T/C [38] of 98.9%. For the same compound, the viability, T/C [9] was 103%, the viability, T/C [10] was 108% and the viability, T/C [11] was 101%. For the same compound, the viability, T/C [12] was 107%, the viability, T/C [39] was 107% and the viability, T/C [40] was 104%. The viability, T/C [15] was 109%, the viability, T/C [16] was 106% and the viability, T/C [17] was 105%. It also gave a viability, T/C [18] of 107%, a viability, T/C [41] of 107% and a viability, T/C [42] of 93.7%. It also gave a viability, T/C [21] of 106%, a viability, T/C [22] of 104% and a viability, T/C [23] of 105%. It also gave a viability, T/C [24] of 107%, a viability, T/C [43] of 102% and a viability, T/C [44] of 98.5%. For the same compound, the viability, T/C [27] was 102%, the viability, T/C [28] was 103% and the viability, T/C [29] was 99.1%. For the same compound, the viability, T/C [30] was 101%, the viability, T/C [45] was 104% and the viability, T/C [46] was 92.4%. The viability, T/C [33] was 97.7%, the viability, T/C [34] was 100% and the viability, T/C [35] was 103%. It also gave a viability, T/C [36] of 98.7%, a viability, T/C [47] of 100% and a viability, T/C [48] of 94.8%.
`CNCc1ccc(-c2[nH]c3cc(F)cc4c3c2CCNC4=O)cc1` + Nc1ccc(C#CCN(C(=O)Cc2ncc(C(F)(F)F)cc2C(F)(F)F)c2ccc(F)cc2)nn1 was tested, and the IC50 (second compound 0.0316 µM) was over 10 µM, the IC50 (second compound 0.1 µM) was over 10 µM and the IC50 (second compound 0.316 µM) was over 10 µM. It also gave an IC50 (second compound 1 µM) of over 10 µM, an IC50 (second compound 3.16 µM) of over 10 µM and an IC50 (second compound 10 µM) of over 10 µM. For the same compound, the viability, T/C [3] was 101%, the viability, T/C [4] was 98.2% and the viability, T/C [5] was 98.2%. The viability, T/C [6] was 97%, the viability, T/C [37] was 96.1% and the viability, T/C [38] was 90.5%. The viability, T/C [9] was 103%, the viability, T/C [10] was 99% and the viability, T/C [11] was 99.9%. It also gave a viability, T/C [12] of 101%, a viability, T/C [39] of 97.3% and a viability, T/C [40] of 92.5%. For the same compound, the viability, T/C [15] was 97.3%, the viability, T/C [16] was 99.2% and the viability, T/C [17] was 97%. It also gave a viability, T/C [18] of 96%, a viability, T/C [41] of 102% and a viability, T/C [42] of 91.8%. For the same compound, the viability, T/C [21] was 104%, the viability, T/C [22] was 96.4% and the viability, T/C [23] was 94.7%. For the same compound, the viability, T/C [24] was 102%, the viability, T/C [43] was 97.3% and the viability, T/C [44] was 94.9%. For the same compound, the viability, T/C [27] was 97.3%, the viability, T/C [28] was 100% and the viability, T/C [29] was 101%. For the same compound, the viability, T/C [30] was 93.9%, the viability, T/C [45] was 95.9% and the viability, T/C [46] was 89.6%. For the same compound, the viability, T/C [33] was 95.5%, the viability, T/C [34] was 96.9% and the viability, T/C [35] was 91.9%. It also gave a viability, T/C [36] of 93%, a viability, T/C [47] of 89.6% and a viability, T/C [48] of 69.9%.
In the case of `Cn1ncnc1[C@H]1c2n[nH]c(=O)c3cc(F)cc(c23)N[C@@H]1c1ccc(F)cc1` + Nc1ccc(C#CCN(C(=O)Cc2ncc(C(F)(F)F)cc2C(F)(F)F)c2ccc(F)cc2)nn1, the IC50 (second compound 0.0316 µM) is reported as over 0.1 µM, the IC50 (second compound 0.1 µM) is reported as over 0.1 µM and the IC50 (second compound 0.316 µM) is reported as over 0.1 µM. For the same compound, the IC50 (second compound 1 µM) was over 0.1 µM, the IC50 (second compound 3.16 µM) was over 0.1 µM and the IC50 (second compound 10 µM) was over 0.1 µM. It also gave a viability, T/C (second compound 0.0316 µM, first compound 0.000316 µM) of 97.9%, a viability, T/C (second compound 0.0316 µM, first compound 0.001 µM) of 102% and a viability, T/C [1] of 101%. The viability, T/C [2] was 98.3%, the viability, T/C [3] was 101% and the viability, T/C [4] was 89.2%. The viability, T/C (second compound 0.1 µM, first compound 0.000316 µM) was 107%, the viability, T/C (second compound 0.1 µM, first compound 0.001 µM) was 102% and the viability, T/C [7] was 102%. It also gave a viability, T/C [8] of 98.1%, a viability, T/C [9] of 102% and a viability, T/C [10] of 86.5%. The viability, T/C (second compound 0.316 µM, first compound 0.000316 µM) was 104%, the viability, T/C (second compound 0.316 µM, first compound 0.001 µM) was 106% and the viability, T/C [13] was 100%. It also gave a viability, T/C [14] of 96.6%, a viability, T/C [15] of 96% and a viability, T/C [16] of 89.6%. The viability, T/C (second compound 1 µM, first compound 0.000316 µM) was 105%, the viability, T/C (second compound 1 µM, first compound 0.001 µM) was 101% and the viability, T/C [19] was 98.7%. For the same compound, the viability, T/C [20] was 98.1%, the viability, T/C [21] was 96.8% and the viability, T/C [22] was 86.2%. The viability, T/C (second compound 3.16 µM, first compound 0.000316 µM) was 102%, the viability, T/C (second compound 3.16 µM, first compound 0.001 µM) was 99% and the viability, T/C [25] was 93%. For the same compound, the viability, T/C [26] was 95.4%, the viability, T/C [27] was 89.2% and the viability, T/C [28] was 82.6%. The viability, T/C (second compound 10 µM, first compound 0.000316 µM) was 101%, the viability, T/C (second compound 10 µM, first compound 0.001 µM) was 94.9% and the viability, T/C [31] was 94.8%. For the same compound, the viability, T/C [32] was 85.7%, the viability, T/C [33] was 71.9% and the viability, T/C [34] was 53.4%.
